Data published in patent publication US8697649B2, “Polypeptides, nucleic acid molecule encoding polypeptides, and uses of polypeptides” (China Medical University, priority 2012, dated 2014).
Entries after “also recorded” stand apart in the source; their conditions may differ. Read-outs that look alike come from different tables or passages of the source. One block for each sequence: values may come before it. Where no end group is shown, it is not given here.

Key:
[1] = molecular target: insulin receptor tyrosine kinase (Homo sapiens, UniProt P06213); experiment: Receptor binding assay by insulin receptor tyrosine kinase activity; type: biochemical; conditions: poly(Glu,Tyr) substrate, [γ-32P]ATP
Description: The sample was placed in an ice bath for 10 minutes. Then, TCA was added thereinto to precipitate the substrate (poly(Glu,Tyr)) on a filter paper.

diabetic mice [2] = experiment: Measurement of liver index; type: in vivo; conditions: oral, after 28 days
Description: The polypeptide of IRBP-50-68 (SEQ ID NO:6) was orally administrated to the diabetic mice in the experimental group by the same method as described in Example 14. After 28 days, the liver indexes (GOT and GPT) of these mice were measured to evaluate the effect of the polypeptide on the hepato disorders caused by diabetes in diabetic mice.

diabetic mice [3] = experiment: Measurement of renal index; type: in vivo; conditions: oral, after 28 days, blood
Description: After 28 days, the kidney indexes (BUN and CRE) in the blood of these mice were measured to evaluate the effects of these polypeptides on the renal disorders caused by diabetes.

[4] = tested on: diabetic mice (STZ-induced); experiment: Glycated hemoglobin value assay; type: in vivo; conditions: 1×10^−6 mole/kg oral, after 28 days
Description: Glycated hemoglobin value (HbAlc) is the concentration of glucose attached on red blood cells in the blood of an organism. In general, a higher concentration of blood sugar reflects a higher glycated hemoglobin value, while the glycated hemoglobin value is a standard for evaluating the effect of a medicament on treating diabetes. Therefore, in this example, the effect of the polypeptide on controlling the blood sugar values of the mice were evaluated by measuring the glycated hemoglobin value.
In the experimental group, the polypeptides (1×10^−6 mole/kg body weight, 20 μl) were orally administrated to each mouse in the experimental group. In the control group, each mouse was administrated by 20 μl water. The glycated hemoglobin value was measured after 28 days.

insulin receptor [5] = molecular target: T1, insulin receptor (Homo sapiens, UniProt P06213); experiment: Whole cell receptor binding assay with 125I-labeled insulin (IM-9 cells)
T1 construct: endogenous in cells; host or cells: IM-9 human lymphocyte cell line
Description: After incubation, the cells were chilled, centrifuged at 2000 rpm for 10 min at 4° C., and the pellets were washed twice with an ice-cold wash buffer (10 mmol/L Tris and 150 mmol/L NaCl, pH 7.6). The pellet was counted by a gamma counter. The assays were performed at least three times for each polypeptide. […] The lower value of EC50 represents a stronger effect on promoting the binding.

[6] = tested on: mice (BALB/c, STZ-induced, ob/ob); experiment: Blood sugar reducing assay; type: in vivo; conditions: 2.5×10^−9 mole/kg intraperitoneal, 150 minutes
Description: IRBP-1-68 (SEQ ID NO:1), the polypeptides having the segmental amino acid sequences of IRBP, and the polypeptides derived from the substitution of multiple amino acids in the segmental amino acid sequences were analyzed by a blood sugar reducing assay. […] The polypeptides (100 μl, 2.5×10^−9 mole/kg body weight) as shown in Table 11 were administrated to each mouse in an experimental group by intraperitoneal injection. Each mouse in the control group was administrated with 100 μl water. […] After 150 minutes, blood samples were collected from the mouse tails, while the blood sugar value was measured by a glucometer (ACCU-CHEK Advantage, Roche, Germany). The blood sugar values of the mice in the experimental group and control group were compared and analyzed.

3T3-L1 adipocytes [7] = experiment: Western blotting analysis of insulin signal pathway-related proteins; type: cell-based; conditions: 3T3-L1 adipocytes treated 16 hours, FIG. 3
Description: 3T3-L1 adipocytes were cultured at 37° C. for 24 hours, treated with IRBP-1-68 (SEQ ID NO:1) for 16 hours, collected using a cell scraper after being washed with ice-cold PBS, and lysed with a 300 μl sample buffer (62.5 mM Tris-HCl, pH 6.8, 2% sodium dodecyl sulfate, 10% glycerol, 50 mM dithiothreitol, 0.1% bromophenol blue). The protein concentration of the cell lysate was determined with a Bradford method (Bio-Rad, Hercules, Calif., USA). The proteins (10 μg) were separated by SDS-PAGE and the protein bands were then transferred electrophoretically to nitrocellulose membranes (Amersham Pharmacia Biotech Inc., Piscataway, N.J., USA). Membranes were blocked in blocking buffer (20 mM Tris-HCl, pH 7.6, 140 mM NaCl, 0.1% Tween-20, 5% skim milk powder) and probed with anti-Akt, anti-phospho-Akt (Ser473), anti-phospho-Akt (Thr308), anti-phospho-PTEN (phosphatase and tensin homolog deleted on Chromosome ten) (Ser380), anti-phospho-GSK-3β (glycogensynthasekinase-3β) (Ser9), anti-phospho-Raf (Ser259), anti-phospho-PDK1 (phosphoinositide-dependent kinase 1) (Ser241) antibodies (Cell Signaling Technology, Beverly, Mass., USA). The result was shown in FIG. 3, wherein the values shown in FIG. 3 represent the intensity of the bands in western blotting analysis. A higher value represents a higher expression level of the target protein.

3T3-L1 adipocytes [8] = experiment: Microarray analysis; type: cell-based; conditions: expression increased or decreased up to 2 folds
Description: Total RNAs were extracted from 3T3-L1 adipocytes which were or were not treated with IRBP-1-68 (SEQ ID NO:1) using RNeasy Mini kit (Qiagen, Valencia, Calif., USA). Total RNA was evaluated using Agilent 2100 bioanalyzer (Agilent Technologies, Santa Clara, Calif., USA). The RNA sample with an RNA integrity number greater than 8.0 was selected. Microarray analysis was performed as described previously (see Cheng, W. Y. et al., 2009, Comprehensive evaluation of a novel nuclear factor-κB inhibitor, quinoclamine, by transcriptomic analysis. Brit. J. Pharmacol. 157(5): 746-756; Cheng, H. M. et al., 2010, Application of bioactivity database of Chinese herbal medicine on the therapeutic prediction, drug development, and safety evaluation. J. Ethnopharmacol. 132 (2): 429-437; and Hsiang, C. Y. et al., 2009, Nuclear factor-κB bioluminescence imaging-guided transcriptomic analysis for the assessment of hoist-biomaterial interaction in vivo. Biomaterials 30 (17): 3042-3049, which are entirely incorporated hereinto by reference).

insulin receptor [9] = molecular target: T1, insulin receptor; experiment: Insulin receptor autophosphorylation assay in IM-9 cells; type: cell-based; conditions: stimulated 15 min at 37° C., immunoblotting, FIG. 2
Description: The assay was conducted by the following steps: The human lymphocyte cell line (IM-9) was serum-starved (RPMI medium supplemented with 0.1% BSA) for 16 h and then stimulated with IRBP-1-68 (SEQ ID NO:1) for 15 min at 37° C., and washed with cold PBS. The cells were lysed to obtain about […] of total proteins, while the immunoprecipitation was conducted by the anti-insulin receptor polyclonal antibody (C-19). Then, the protein was adsorbed onto protein G-agarose beads (Gibco-BRL, Gaithersburg, Md.) for 2 h at 4° C., resolved by SDS-PAGE, and transferred to an Immobilon-P membrane by electroblotting. The membrane was incubated with antiphosphotyrosine antibody (4G10) overnight at 4° C. to conduct the immunoblotting analysis. In FIG. 2, the broader band of the immunoblotting analysis represents a higher protein expression level.

3T3-L1 adipocytes [10] = experiment: Glucose uptake assay; type: cell-based; conditions: 1 nM insulin plus IRBP-1-68, 30 min, [3H]-2-deoxy-D-glucose 10 min
Excerpt: A key step for modulating blood sugar is that adipose tissue can uptake glucose from the blood and thereby, reduce blood sugar. Accordingly, this example further used 3T3-L1 adipocytes as an assay platform to conduct the glucose uptake assay. […] The cells were washed three times with ice-cold phosphate buffered saline (PBS) and then solubilized in 0.1% SDS.

3T3-L1 adipocytes [11] = experiment: Immunochemical analysis of GLUT4; type: cell-based; conditions: FIG. 4
Description: Immunochemical analysis was conducted by the following method: 3T3-L1 adipocytes were cultured and fixed on a cover slide, and incubated with a 1:50 diluted mouse monoclonal antibody against GLUT4 (Millipore, Billerica, Mass., USA) at 4° C. overnight. Then, the cells were incubated with biotinylated secondary antibody (Zymed Laboratories, South San Francisco, Calif., USA) at room temperature for 20 min. Then, the slides were incubated with avidin-biotin complex reagent and stained with 3,3′-diaminobenzidine (HISTOSTAIN®-Plus Kit, Zymed Laboratories, South San Francisco, Calif., USA).

[12] = STZ-induced mice, glucose 1 g/kg

activity of insulin receptor tyrosine kinase [1]: 65.95 ± 1.74 U/ml
Sequence: RYKYQCWYI (optimal docking polypeptide of insulin receptor) [IRBP-9D]

EC50 (insulin receptor [5]; IM-9 cells, 16° C., 90 min): 0.86 ± 0.05 nM
Sequence: IVARPPAIG [IRBP-MC]

activity of insulin receptor tyrosine kinase [1]: 40.34 ± 1.94 U/ml
Sequence: RYKYQWFYI (optimal docking polypeptide of insulin receptor) [IRBP-9A]
blood sugar inhibition ratio [6, 12]: 34.2 ± 13.6%

activity of insulin receptor tyrosine kinase [1]: 79.76±5.64 U/ml
Sequence: RYKYQCFYI (optimal docking polypeptide of insulin receptor) [IRBP-9B]
blood sugar inhibition ratio ([6]; BALB/c mice, glucose 4 g/kg): 61.0 ± 2.5 %

activity of insulin receptor tyrosine kinase [1]: 44.18 ± 3.61 U/ml
Sequence: RYKYQWWYI (optimal docking polypeptide of insulin receptor) [IRBP-9C]
blood sugar inhibition ratio [6, 12]: 22.6 ± 9.0%

EC50 (insulin receptor [5]; IM-9 cells, 16° C., 90 min): > 25 nM
Sequence: VIIKVGSGATKDFRCDRVR [IRBP-34-52]

Second part, the sequence before the results:

Sequence: RVRVWVTERGIVARPPTIG [IRBP-50-68]
GOT (diabetic mice [2]): 247.89 ± 97.38
GPT (diabetic mice [2]): 135.72 ± 30.72
BUN (diabetic mice [3]): 107.25 ± 42.99
CRE (diabetic mice [3]): 0.191 ± 0.12
glycated hemoglobin value [4]: 5.93 ± 0.55 %

Sequence: IVARPPTIG [IRBP-60-68]
BUN (diabetic mice [3]): 73.17 ± 29.95
CRE (diabetic mice [3]): 0.17 ± 0.04
EC50 (insulin receptor [5]): 0.77 ± 0.04 nM
glycated hemoglobin value [4]: 5.73 ± 0.11 %

Sequence: GAAAKAVIERENPRVRVI [IRBP-17-35]
EC50 (insulin receptor [5]): > 25 nM

Sequence: DFRCDRVRVWVTERGIVARPPTIG [IRBP-45-68]
EC50 (insulin receptor [5]; IM-9 cells, 16° C., 90 min): > 25 nM

Sequence: IVYQVPTIG [IRBP-MT]
EC50 (insulin receptor [5]; IM-9 cells, 16° C., 90 min): 0.77 ± 0.02 nM

Sequence: SRCQGKSSWPQLVGSTGAAAKAVIERENPRVRAVIIKVGSGATKDFRCDRVRVWVTERGIVARPPTIG [IRBP-1-68]
protein expression levels of insulin signal pathway-related genes (PDK-1, phosphorylated-AKt Thr 308, phosphorylated-AKt Ser 473, GLUT4) (3T3-L1 adipocytes [7]): can increase the protein expression levels
number of the genes with changed expression level (total gene number of the pathway) (3T3-L1 adipocytes [8]; adipocytokine signal pathway): 16 (71)
number of the genes with changed expression level (total gene number of the pathway) (3T3-L1 adipocytes [8]; insulin signal pathway): 28 (136)
insulin receptor autophosphorylation (ratio of phosphorylated insulin receptor to insulin receptor) (insulin receptor [9]): increased along with the increment of IRBP-1-68 (SEQ ID NO:1) concentration; also recorded: can induce insulin receptor autophosphorylation
Ratio (radioactivity, glucose uptake) (3T3-L1 adipocytes [10]): 1.79 ± 0.49
blood sugar inhibition ratio ([6]; BALB/c mice, glucose 4 g/kg): 68.9 ± 0.9 %
blood sugar inhibition ratio [6, 12]: 37.3 ± 3.8%
blood sugar inhibition ratio ([6]; ob/ob mice, glucose 1 g/kg): 55.6 ± 12.9 %
GLUT4 expression by immunochemical staining (3T3-L1 adipocytes [11]): can promote 3T3-L1 adipocytes to express GLUT4
